From patent US10570168B2, “2′ and/or 5′ amino-acid ester phosphoramidate 3′-deoxy adenosine derivatives as anti- cancer compounds” (NuCana plc, priority 2014, dated 2020)

Assays:
Experiment in all cases: Solid tumour and haematological malignancy assay (CellTiterGlo)
Assay type in all cases: cell-based
[1] = test system: CCRFCEM; conditions: Homo sapiens, CCRF-CEM, 72 h; for IC50: read-out: IC50 (absolute IC50)
In short: (§1)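 Cell viability by CellTiterGlo after 72 h compound exposure under standard growth conditions, in duplicate, with 0.5% final DMSO.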

[2] = test system: HEL92.1.7; conditions: Homo sapiens, HEL 92.1.7, 72 h, read-out: IC50 (absolute IC50)
In short: as §1

[3] = test system: HL-60; conditions: Homo sapiens, HL-60, 72 h, read-out: IC50 (absolute IC50)
In short: as §1

[4] = test system: KG-1; conditions: Homo sapiens, KG-1, 72 h; for IC50: read-out: IC50 (absolute IC50)
In short: as §1

[5] = test system: MiaPaCa-2; conditions: Homo sapiens, MIA PaCa-2, 72 h, read-out: IC50 (absolute IC50)
In short: as §1

[6] = test system: K562; conditions: Homo sapiens, K562, 72 h; for IC50: read-out: IC50 (absolute IC50)
In short: as §1

[7] = test system: HT29; conditions: Homo sapiens, HT-29, 72 h, read-out: IC50 (absolute IC50)
In short: as §1

[8] = test system: MCF7; conditions: Homo sapiens, MCF7, 72 h, read-out: IC50 (absolute IC50)
In short: as §1

[9] = test system: HepG2; conditions: Homo sapiens, HepG2, 72 h, read-out: IC50 (absolute IC50)
In short: as §1

[10] = test system: NCI-H929; conditions: Homo sapiens, NCI-H929, 72 h; for IC50: read-out: IC50 (absolute IC50)
In short: (§2)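 Cells were exposed to compound for 72 hr under standard growth conditions, and viability was then read by CellTiterGlo luminescence. Treatment used a 9-point, 3.16-fold titration in duplicate, with a lowest final concentration of 19.9 nM and 0.5% final DMSO.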

[11] = test system: RPMI-8226; conditions: Homo sapiens, RPMI-8226, 72 h, read-out: IC50 (absolute IC50)
In short: as §2

[12] = test system: BxPC-3; conditions: Homo sapiens, BXPC-3, 72 h, read-out: IC50 (absolute IC50)
In short: as §2

[13] = test system: MV4-11; conditions: Homo sapiens, MV4-11, 72 h; for IC50: read-out: IC50 (absolute IC50)
In short: as §2

[14] = test system: SW620; conditions: Homo sapiens, SW-620, 72 h; for IC50: read-out: IC50 (absolute IC50)
In short: as §2

[15] = test system: Jurkat; conditions: Homo sapiens, 72 h, read-out: IC50 (absolute IC50)
In short: as §2

[16] = test system: Z138; conditions: Homo sapiens, Z-138, 72 h, read-out: IC50 (absolute IC50)
In short: as §2

[17] = test system: THP-1; conditions: Homo sapiens, THP-1, 72 h; for IC50: read-out: IC50 (absolute IC50)
In short: as §2

[18] = test system: RL; conditions: Homo sapiens, 72 h; for IC50: read-out: IC50 (absolute IC50)
In short: as §2

[19] = test system: HS445; conditions: Hs 445, 72 h, read-out: IC50 (absolute IC50)
In short: as §2

[20] = test system: MOLT-4; conditions: Homo sapiens, MOLT-4, 72 h, read-out: IC50 (absolute IC50)
In short: as §2

| SMILES | IC50 [1] [µM] | IC50 [2] [µM] | IC50 [3] [µM] | IC50 [4] [µM] | IC50 [5] [µM] | IC50 [6] [µM] | IC50 [7] [µM] | IC50 [8] [µM] | IC50 [9] [µM] | IC50 [10] [µM] | IC50 [11] [µM] | IC50 [12] [µM] | IC50 [13] [µM] | IC50 [14] [µM] | IC50 [15] [µM] | IC50 [16] [µM] | IC50 [17] [µM] | IC50 [18] [µM] | IC50 [19] [µM] | IC50 [20] [µM] | further results |
| --- | --- | --- | --- | --- | --- | --- | --- | --- | --- | --- | --- | --- | --- | --- | --- | --- | --- | --- | --- | --- | --- |
| COC(=O)C(C)(C)NP(=O)(OC[C@@H]1C[C@@H](O)[C@H](n2cnc3c(N)ncnc32)O1)Oc1cccc2ccccc12 (stereo partly drawn) [E, Methyl 2-(((((2S,4R,5R)-5-(6-amino-9H-purin-9-yl)-4-hydroxytetrahydrofuran-2-yl)-methoxy)(naphthalen-1-yloxy)phosphoryl)amino)-2-methylpropanoate] | 0.1 to 5 | 15 to 100 | 5 to 15 | 15 to 100 | 15 to 100 | 5 to 15 | 15 to 100 | 5 to 15 | 15 to 100 | 15 to 100 | 15 to 100 | 15 to 100 | 5 to 15 | 15 to 100 | 5 to 15 | 15 to 100 | > 100 | 5 to 15 | 15 to 100 | 0.1 to 5 | Emax ([1]; read-out: MI %): 100%; Emax ([4]; read-out: MI %): 100%; Emax ([6]; read-out: MI %): 90% |
| CCOC(=O)CCc1ccccc1OP(=O)(N[C@@H](C)C(=O)OCc1ccccc1)OC[C@@H]1C[C@@H](O)[C@H](n2cnc3c(N)ncnc32)O1 (stereo partly drawn) [F, (2S)-benzyl 2-(((((2S,4R,5R)-5-(6-amino-9H-purin-9-yl)-4-hydroxytetrahydrofuran-2-yl)methoxy)(2-(3-ethoxy-3-oxopropyl)phenoxy)phosphoryl)amino)propanoate] | 0.1 to 5 | 5 to 15 | 5 to 15 | 15 to 100 | 5 to 15 | 0.1 to 5 | 15 to 100 | 5 to 15 | 15 to 100 | 5 to 15 | 15 to 100 | 15 to 100 | 0.1 to 5 | 15 to 100 | 0.1 to 5 | 15 to 100 | 15 to 100 | 5 to 15 | 15 to 100 | 0.1 to 5 | Emax ([10]; read-out: MI %): 100%; Emax ([13]; read-out: MI %): 100%; Emax ([14]; read-out: MI %): 90%; Emax ([17]; read-out: MI %): 100%; Emax ([18]; read-out: MI %): 90% |
